Laboratory results: publication PMC7178174, “Residues in Transmembrane Segments of the P2X4 Receptor Contribute to Channel Function and Ethanol Sensitivity” (International Journal of Molecular Sciences, 2020)
Positions count from the first letter of the chain named.

Experiments:
Format in all cases: cell-based
[1] = target: T1, rat P2X4R (P2X4 receptor) (Rattus norvegicus, UniProt P51577, R33A); assay: two-electrode voltage clamp, Xenopus oocytes, ATP-gated current
T1 construct: gene P2rx4; full-length cDNA in pcDNA3, cRNA expressed in Xenopus laevis oocytes; homomeric trimer; ~60 kDa band
T1 sequence (P51577 1-388 R33A): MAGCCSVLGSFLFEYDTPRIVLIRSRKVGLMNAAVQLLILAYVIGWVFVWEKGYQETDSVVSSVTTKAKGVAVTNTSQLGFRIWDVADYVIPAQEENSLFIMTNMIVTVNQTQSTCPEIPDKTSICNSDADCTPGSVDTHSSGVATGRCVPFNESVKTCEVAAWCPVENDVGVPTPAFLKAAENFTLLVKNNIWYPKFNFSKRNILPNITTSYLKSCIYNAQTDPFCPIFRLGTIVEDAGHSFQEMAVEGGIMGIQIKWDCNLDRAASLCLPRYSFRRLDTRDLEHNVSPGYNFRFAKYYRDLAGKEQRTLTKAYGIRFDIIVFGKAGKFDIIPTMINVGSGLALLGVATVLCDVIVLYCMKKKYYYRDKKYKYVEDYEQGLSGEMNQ
Source text: (§1) two-electrode voltage clamp, Xenopus oocytes, ATP-gated current on rat P2X4R (P2X4 receptor)

[2] = target: T2, rat P2X4R (P2X4 receptor) (Rattus norvegicus, UniProt P51577); assay: as above
T2 construct: gene P2rx4; full-length cDNA in pcDNA3, cRNA expressed in Xenopus laevis oocytes; homomeric trimer; ~60 kDa band
T2 sequence (P51577 1-388): T1 sequence (P51577 1-388 R33A) with A33R
Source text: as §1

[3] = target: T3, rat P2X4R (P2X4 receptor) (Rattus norvegicus, UniProt P51577, V49L); assay: as above
T3 construct: gene P2rx4; full-length cDNA in pcDNA3, cRNA expressed in Xenopus laevis oocytes; homomeric trimer; ~60 kDa band
T3 sequence (P51577 1-388 V49L): T1 sequence (P51577 1-388 R33A) with A33R, V49L
Source text: as §1

[4] = target: T4, rat P2X4R (P2X4 receptor) (Rattus norvegicus, UniProt P51577, R33S); assay: as above
T4 construct: gene P2rx4; full-length cDNA in pcDNA3, cRNA expressed in Xenopus laevis oocytes; homomeric trimer; ~60 kDa band
T4 sequence (P51577 1-388 R33S): T1 sequence (P51577 1-388 R33A) with A33S
Source text: as §1

[5] = target: T5, rat P2X4R (P2X4 receptor) (Rattus norvegicus, UniProt P51577, L37A); assay: as above
T5 construct: gene P2rx4; full-length cDNA in pcDNA3, cRNA expressed in Xenopus laevis oocytes; homomeric trimer; ~60 kDa band
T5 sequence (P51577 1-388 L37A): T1 sequence (P51577 1-388 R33A) with A33R, L37A
Source text: as §1

[6] = target: T6, rat P2X4R (P2X4 receptor) (Rattus norvegicus, UniProt P51577, R33K); assay: as above
T6 construct: gene P2rx4; full-length cDNA in pcDNA3, cRNA expressed in Xenopus laevis oocytes; homomeric trimer; ~60 kDa band
T6 sequence (P51577 1-388 R33K): T1 sequence (P51577 1-388 R33A) with A33K
Source text: as §1

[7] = target: T7, rat P2X4R (P2X4 receptor) (Rattus norvegicus, UniProt P51577, V49G); assay: as above
T7 construct: gene P2rx4; full-length cDNA in pcDNA3, cRNA expressed in Xenopus laevis oocytes; homomeric trimer; ~60 kDa band
T7 sequence (P51577 1-388 V49G): T1 sequence (P51577 1-388 R33A) with A33R, V49G
Source text: as §1

[8] = target: T8, rat P2X4R (P2X4 receptor) (Rattus norvegicus, UniProt P51577, A34W); assay: as above
T8 construct: gene P2rx4; full-length cDNA in pcDNA3, cRNA expressed in Xenopus laevis oocytes; homomeric trimer; ~60 kDa band
T8 sequence (P51577 1-388 A34W): T1 sequence (P51577 1-388 R33A) with A33R, A34W
Source text: as §1

[9] = target: T9, rat P2X4R (P2X4 receptor) (Rattus norvegicus, UniProt P51577, W46A); assay: as above
T9 construct: gene P2rx4; full-length cDNA in pcDNA3, cRNA expressed in Xenopus laevis oocytes; homomeric trimer; ~60 kDa band
T9 sequence (P51577 1-388 W46A): T1 sequence (P51577 1-388 R33A) with A33R, W46A
Source text: as §1

[10] = target: T10, rat P2X4R (P2X4 receptor) (Rattus norvegicus, UniProt P51577, R33L); assay: as above
T10 construct: gene P2rx4; full-length cDNA in pcDNA3, cRNA expressed in Xenopus laevis oocytes; homomeric trimer; ~60 kDa band
T10 sequence (P51577 1-388 R33L): T1 sequence (P51577 1-388 R33A) with A33L
Source text: as §1

[11] = target: T11, rat P2X4R (P2X4 receptor) (Rattus norvegicus, UniProt P51577, F48A); assay: as above
T11 construct: gene P2rx4; full-length cDNA in pcDNA3, cRNA expressed in Xenopus laevis oocytes; homomeric trimer; ~60 kDa band
T11 sequence (P51577 1-388 F48A): T1 sequence (P51577 1-388 R33A) with A33R, F48A
Source text: as §1

[12] = target: T2, rat P2X4R (P2X4 receptor); assay: two-electrode voltage clamp, Xenopus oocytes, inhibition of ATP-gated current; conditions: read-out: % inhibition at 100 mM

Compound	EC50 [1] [µM]	EC50 [2] [µM]	EC50 [3] [µM]	EC50 [4] [µM]	EC50 [5] [µM]	EC50 [6] [µM]	EC50 [7] [µM]	EC50 [8] [µM]	EC50 [9] [µM]	EC50 [10] [µM]	EC50 [11] [µM]	inhibition at 100000 µM [12] [%]
Nc1ncnc2c1ncn2[C@@H]1O[C@H](COP(=O)(O)OP(=O)(O)OP(=O)(O)O)[C@@H](O)[C@H]1O [ATP]	7.04 ± 0.51	5.74 ± 0.45	10.6 ± 1.3	4.94 ± 1.09	8.91 ± 0.84	6.33 ± 0.93	9.6 ± 0.9	6.5 ± 1.02	3.58 ± 0.57	5.06 ± 0.7	3.53 ± 0.73	
CCO [ethanol]												44 ± 4
